{
  "source": "the Kinase Knowledgebase extract (Sharma et al. 2016)",
  "key": {"PIK3CA (human)": {"target": "PIK3CA (human) (UniProt P42336)", "sequence (P42336 whole entry, looked up)": "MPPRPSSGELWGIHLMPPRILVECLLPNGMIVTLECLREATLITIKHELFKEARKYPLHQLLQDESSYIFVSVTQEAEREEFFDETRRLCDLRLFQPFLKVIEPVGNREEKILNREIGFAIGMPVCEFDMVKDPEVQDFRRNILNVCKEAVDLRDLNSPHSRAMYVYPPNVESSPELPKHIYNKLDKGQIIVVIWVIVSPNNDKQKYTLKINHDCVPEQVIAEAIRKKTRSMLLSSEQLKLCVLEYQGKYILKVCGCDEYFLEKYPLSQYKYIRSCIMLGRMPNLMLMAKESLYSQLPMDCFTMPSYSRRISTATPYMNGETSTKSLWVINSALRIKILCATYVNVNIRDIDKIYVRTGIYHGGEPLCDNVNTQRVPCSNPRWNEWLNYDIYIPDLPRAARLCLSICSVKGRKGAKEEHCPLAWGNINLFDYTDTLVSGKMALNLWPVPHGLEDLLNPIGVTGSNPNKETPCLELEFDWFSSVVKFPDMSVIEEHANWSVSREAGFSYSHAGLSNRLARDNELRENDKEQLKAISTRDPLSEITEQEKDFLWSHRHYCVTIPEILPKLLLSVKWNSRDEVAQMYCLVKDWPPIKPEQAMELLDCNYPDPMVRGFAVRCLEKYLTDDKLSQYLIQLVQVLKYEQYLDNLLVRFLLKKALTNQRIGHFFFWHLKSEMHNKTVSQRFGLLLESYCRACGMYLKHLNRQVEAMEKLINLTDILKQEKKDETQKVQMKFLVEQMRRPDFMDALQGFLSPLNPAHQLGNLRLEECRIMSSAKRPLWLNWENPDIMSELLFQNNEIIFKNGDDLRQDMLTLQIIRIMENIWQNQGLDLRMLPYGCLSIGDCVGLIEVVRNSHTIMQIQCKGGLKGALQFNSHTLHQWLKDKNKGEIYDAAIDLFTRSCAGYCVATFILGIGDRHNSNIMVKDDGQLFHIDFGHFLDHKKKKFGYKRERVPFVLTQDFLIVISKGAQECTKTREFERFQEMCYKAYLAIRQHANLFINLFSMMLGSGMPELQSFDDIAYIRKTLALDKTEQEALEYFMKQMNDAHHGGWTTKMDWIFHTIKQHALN", "assay": "Inhibition of PIK3CA Kinase Activity"}, "PIK3CG (human)": {"target": "PIK3CG (human) (UniProt P48736)", "sequence (P48736 whole entry, looked up)": "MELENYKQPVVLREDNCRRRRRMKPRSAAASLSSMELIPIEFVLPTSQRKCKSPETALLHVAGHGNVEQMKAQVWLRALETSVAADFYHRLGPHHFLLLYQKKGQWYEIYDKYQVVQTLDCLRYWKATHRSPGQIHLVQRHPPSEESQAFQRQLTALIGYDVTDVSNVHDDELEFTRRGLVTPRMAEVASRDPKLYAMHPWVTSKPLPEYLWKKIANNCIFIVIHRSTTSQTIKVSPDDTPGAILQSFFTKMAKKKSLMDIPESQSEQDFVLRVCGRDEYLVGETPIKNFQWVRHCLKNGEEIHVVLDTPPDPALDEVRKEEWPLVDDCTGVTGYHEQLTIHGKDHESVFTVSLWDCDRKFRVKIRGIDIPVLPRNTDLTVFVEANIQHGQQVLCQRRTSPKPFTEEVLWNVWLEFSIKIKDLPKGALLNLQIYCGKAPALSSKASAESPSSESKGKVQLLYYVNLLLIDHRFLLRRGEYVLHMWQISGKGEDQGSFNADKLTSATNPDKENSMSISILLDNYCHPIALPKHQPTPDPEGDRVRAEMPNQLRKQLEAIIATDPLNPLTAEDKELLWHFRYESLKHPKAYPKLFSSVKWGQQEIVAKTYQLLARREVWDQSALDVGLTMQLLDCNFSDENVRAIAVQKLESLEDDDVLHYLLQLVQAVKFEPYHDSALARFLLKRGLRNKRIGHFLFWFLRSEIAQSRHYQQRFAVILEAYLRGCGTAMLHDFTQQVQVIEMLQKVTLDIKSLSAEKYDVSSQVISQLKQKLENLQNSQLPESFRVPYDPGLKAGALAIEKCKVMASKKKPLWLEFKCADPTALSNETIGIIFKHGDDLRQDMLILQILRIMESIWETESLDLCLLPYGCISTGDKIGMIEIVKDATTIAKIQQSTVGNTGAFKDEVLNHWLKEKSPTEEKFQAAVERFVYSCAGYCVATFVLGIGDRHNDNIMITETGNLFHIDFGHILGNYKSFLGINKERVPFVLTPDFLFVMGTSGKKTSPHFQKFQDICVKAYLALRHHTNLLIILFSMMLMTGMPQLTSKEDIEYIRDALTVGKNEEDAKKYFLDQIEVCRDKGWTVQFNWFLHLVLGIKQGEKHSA", "assay": "Inhibition of PIK3CG Kinase Activity"}, "PIK3CB (Human)": {"target": "PIK3CB (Human) (UniProt P42338)", "sequence (P42338 whole entry, looked up)": "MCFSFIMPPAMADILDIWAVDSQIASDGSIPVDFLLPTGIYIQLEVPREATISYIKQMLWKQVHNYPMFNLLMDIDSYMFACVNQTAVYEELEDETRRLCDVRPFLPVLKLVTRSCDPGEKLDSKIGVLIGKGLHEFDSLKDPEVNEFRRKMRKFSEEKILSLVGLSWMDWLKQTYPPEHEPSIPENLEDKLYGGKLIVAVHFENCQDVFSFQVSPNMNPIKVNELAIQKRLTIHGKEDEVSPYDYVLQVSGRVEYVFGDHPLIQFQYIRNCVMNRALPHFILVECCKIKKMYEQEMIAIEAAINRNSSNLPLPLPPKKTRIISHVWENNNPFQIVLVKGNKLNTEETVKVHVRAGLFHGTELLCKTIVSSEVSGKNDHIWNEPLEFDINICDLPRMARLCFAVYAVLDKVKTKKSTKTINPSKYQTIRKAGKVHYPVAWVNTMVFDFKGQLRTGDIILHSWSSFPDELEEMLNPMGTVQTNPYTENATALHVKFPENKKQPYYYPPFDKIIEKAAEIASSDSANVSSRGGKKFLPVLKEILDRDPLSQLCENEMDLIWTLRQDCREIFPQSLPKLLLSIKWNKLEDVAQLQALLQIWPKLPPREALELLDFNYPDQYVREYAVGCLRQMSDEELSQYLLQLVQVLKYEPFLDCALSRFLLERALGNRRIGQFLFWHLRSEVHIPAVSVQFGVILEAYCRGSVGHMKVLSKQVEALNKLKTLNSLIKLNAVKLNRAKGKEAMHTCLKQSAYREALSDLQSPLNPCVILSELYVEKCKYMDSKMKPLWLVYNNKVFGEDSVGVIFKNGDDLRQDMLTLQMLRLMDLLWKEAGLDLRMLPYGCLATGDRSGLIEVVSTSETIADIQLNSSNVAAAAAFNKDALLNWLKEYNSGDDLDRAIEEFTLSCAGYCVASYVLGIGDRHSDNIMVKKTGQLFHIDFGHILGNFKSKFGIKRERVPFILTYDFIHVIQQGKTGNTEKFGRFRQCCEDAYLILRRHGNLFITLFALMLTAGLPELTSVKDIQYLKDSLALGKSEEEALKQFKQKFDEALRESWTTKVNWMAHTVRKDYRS", "assay": "Inhibition of PIK3CB Kinase Activity"}, "PIK3CD (Human)": {"target": "PIK3CD (Human) (UniProt O00329)", "sequence (O00329 whole entry, looked up)": "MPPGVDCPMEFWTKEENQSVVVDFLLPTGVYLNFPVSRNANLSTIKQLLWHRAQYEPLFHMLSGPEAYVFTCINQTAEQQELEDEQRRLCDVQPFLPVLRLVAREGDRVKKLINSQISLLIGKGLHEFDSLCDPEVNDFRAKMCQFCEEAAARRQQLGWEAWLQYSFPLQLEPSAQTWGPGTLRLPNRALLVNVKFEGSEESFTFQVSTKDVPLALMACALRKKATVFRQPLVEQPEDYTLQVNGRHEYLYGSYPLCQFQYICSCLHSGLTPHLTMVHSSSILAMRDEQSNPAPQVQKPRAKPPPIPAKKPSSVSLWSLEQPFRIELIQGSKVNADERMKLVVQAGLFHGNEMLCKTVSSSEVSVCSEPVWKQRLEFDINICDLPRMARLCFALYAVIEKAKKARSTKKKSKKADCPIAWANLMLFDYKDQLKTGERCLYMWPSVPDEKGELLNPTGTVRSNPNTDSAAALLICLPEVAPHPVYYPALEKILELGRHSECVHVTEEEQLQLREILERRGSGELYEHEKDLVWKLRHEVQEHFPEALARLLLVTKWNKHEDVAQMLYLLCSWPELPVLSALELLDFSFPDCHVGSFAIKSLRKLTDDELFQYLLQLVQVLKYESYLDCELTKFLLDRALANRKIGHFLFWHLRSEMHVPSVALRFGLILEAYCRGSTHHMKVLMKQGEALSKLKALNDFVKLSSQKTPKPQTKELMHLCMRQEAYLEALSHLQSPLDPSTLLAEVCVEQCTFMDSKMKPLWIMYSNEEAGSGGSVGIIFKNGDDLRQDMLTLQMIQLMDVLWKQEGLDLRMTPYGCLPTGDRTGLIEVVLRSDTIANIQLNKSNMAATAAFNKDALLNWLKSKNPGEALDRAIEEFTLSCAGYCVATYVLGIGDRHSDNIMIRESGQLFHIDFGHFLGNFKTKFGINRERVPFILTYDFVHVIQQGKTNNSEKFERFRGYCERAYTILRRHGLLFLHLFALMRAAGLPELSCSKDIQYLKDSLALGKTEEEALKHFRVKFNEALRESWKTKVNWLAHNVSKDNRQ", "assay": "Inhibition of PIK3CD Kinase Activity"}},
  "data": [
    {"smiles": "O=c1c(O)c(-c2ccc(O)c(O)c2)oc2cc(O)cc(O)c12", "values": [
      {"measurement": "IC50", "setting": "PIK3CA (human)", "value": 3800, "unit": "nM"}
    ]},
    {"smiles": "Cc1cc(NCc2ccccc2)c2nc(N3CCOCC3)cc(=O)n2c1", "values": [
      {"measurement": "IC50", "setting": "PIK3CG (human)", "value": "> 10000", "unit": "nM"},
      {"measurement": "IC50", "setting": "PIK3CB (Human)", "value": 50, "unit": "nM"},
      {"measurement": "IC50", "setting": "PIK3CA (human)", "value": 50, "unit": "nM"}
    ]},
    {"smiles": "O=c1c2c(Cl)cccc2nc(CSc2ncnc3[nH]cnc23)n1-c1ccccc1-c1ccccc1", "values": [
      {"measurement": "IC50", "setting": "PIK3CG (human)", "value": "> 2000", "unit": "nM"},
      {"measurement": "IC50", "setting": "PIK3CB (Human)", "value": "> 2000", "unit": "nM"},
      {"measurement": "IC50", "setting": "PIK3CD (Human)", "value": 50, "unit": "nM"},
      {"measurement": "IC50", "setting": "PIK3CA (human)", "value": "> 2000", "unit": "nM"}
    ]},
    {"smiles": "Cc1cc(F)ccc1Oc1cccc2c(=O)cc(N3CCOCC3)[nH]c12", "values": [
      {"measurement": "IC50", "setting": "PIK3CB (Human)", "value": 20, "unit": "nM"},
      {"measurement": "IC50", "setting": "PIK3CA (human)", "value": 20, "unit": "nM"}
    ]}
  ]
}
